What is called IC50 is the concentration that inhibits the measured activity by half.

This note sets out measurements from patent publication US8889704B2 (Array BioPharma Inc., priority 2011, dated 2014).

Holding throughout (format): biochemical
The target of one assay is recombinant rat PIM-3 (Rattus norvegicus, UniProt O70444). Description: PIM-3 Assay (as Example A). To be noted: averaged IC50; 30 μM ATP, 3.75 μM PIM2tide, 0.5 nM PIM-3. An outline of the steps:
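33P incorporation from 30 μM [γ-33P]ATP into 3.75 μM PIM2tide by 0.5 nM rat PIM-3, 60 min at 22 °C in pH 7.4 MOPS buffer, read by P81 filter capture and scintillation counting. Compounds tested in 3-fold dilutions up to 10 μM final, 2% DMSO; percent-of-control data fitted by 4-parameter logistic for IC50.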

The next assay has as its target PIM-1 (Homo sapiens, UniProt P11309). Description: Enzyme PIM-1 Assay ([33P]ATP incorporation into PIM2tide, filter plate). The conditions noted are these: averaged IC50; 35 μM ATP, 7.5 μM PIM2tide, 0.25 nM PIM-1, 60 min at 22° C. An outline of the steps:
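Ten-point, 3-fold dilution series (10 μM top, 2% DMSO final) tested for inhibition of 33P transfer from 35 μM ATP to 7.5 μM PIM2tide by 0.25 nM PIM-1. Reaction 60 min, 22 °C, pH 7.4 MOPS/MgCl2 buffer; phosphocellulose capture, scintillation counting, IC50 where fitted POC equals 50.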

Assay [1] has as its target T1, GST-tagged recombinant full-length human Pim-2 (Homo sapiens, UniProt Q9P1W9).
T1 construct: GST-tagged recombinant full-length human Pim-2; GST
Description: PIM-2 Assay (as Example A). To be noted: averaged IC50; 4 μM ATP, 1.0 μM PIM2tide, 1.5 nM Pim-2. An outline of the steps: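 IC50 was derived by 4-parameter logistic fitting of percent-of-control data over a 10-point, 3-fold series (highest 10 μM, 2% DMSO). Reactions held 1.5 nM GST-Pim-2 (full-length, human), 4 μM [γ-33P]ATP and 1.0 μM PIM2tide for 60 min at 22 °C, pH 7.4; 33P-peptide captured on P81 filters.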

Where a name gives a salt, the structure may show the parent alone.

T1 sequence (Q9P1W9 whole entry): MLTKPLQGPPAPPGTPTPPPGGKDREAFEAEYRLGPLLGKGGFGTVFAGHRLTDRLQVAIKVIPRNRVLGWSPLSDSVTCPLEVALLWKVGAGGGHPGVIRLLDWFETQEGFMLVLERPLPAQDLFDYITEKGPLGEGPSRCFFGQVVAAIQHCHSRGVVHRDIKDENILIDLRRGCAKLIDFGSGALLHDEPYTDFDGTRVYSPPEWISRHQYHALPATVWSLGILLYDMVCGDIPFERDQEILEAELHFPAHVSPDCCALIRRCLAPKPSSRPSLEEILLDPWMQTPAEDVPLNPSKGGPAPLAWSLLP
Chain of PIM-1 (P11309 whole entry, species assumed): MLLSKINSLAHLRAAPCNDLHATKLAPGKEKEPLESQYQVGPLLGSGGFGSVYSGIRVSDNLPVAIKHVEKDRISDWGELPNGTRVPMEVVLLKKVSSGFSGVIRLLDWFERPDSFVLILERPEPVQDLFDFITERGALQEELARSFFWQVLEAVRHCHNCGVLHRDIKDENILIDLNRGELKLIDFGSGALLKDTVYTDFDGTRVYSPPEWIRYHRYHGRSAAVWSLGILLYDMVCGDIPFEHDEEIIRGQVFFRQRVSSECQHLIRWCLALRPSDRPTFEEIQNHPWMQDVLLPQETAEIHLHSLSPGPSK

For the compound `COCCOc1ccc2ccc(-c3nnc4ccc([C@@H](N5CC[C@H](N)C5)C(F)(F)F)cn34)nc2c1` [Example 148, (S)-1-((R)-2,2,2-trifluoro-1-(3-(7-(2-methoxyethoxy)quinolin-2-yl)-[1,2,4]triazolo[4,3-a]pyridin-6-yl)ethyl)pyrrolidin-3-amine dihydrochloride], the IC50 is 1.2 nM at recombinant rat PIM-3, 0.34 nM on PIM-1 and more than 100 nM in assay [1].

As for `COC[C@@H](C)Oc1ccc2ccc(-c3nnc4ccc([C@@H](N5CC[C@H](N)C5)C(F)(F)F)cn34)nc2c1` [Example 149, (S)-1-((R)-2,2,2-trifluoro-1-(3-(7-((R)-1-methoxypropan-2-yloxy)quinolin-2-yl)-[1,2,4]triazolo[4,3-a]pyridin-6-yl)ethyl)pyrrolidin-3-amine dihydrochloride], the IC50 on recombinant rat PIM-3 is 0.7 nM; against PIM-1, 0.17 nM; in assay [1], more than 100 nM.

Turning to `COC[C@H](C)Oc1ccc2ccc(-c3nnc4ccc([C@@H](N5CC[C@H](N)C5)C(F)(F)F)cn34)nc2c1` [Example 150, (S)-1-((R)-2,2,2-trifluoro-1-(3-(7-((S)-1-methoxypropan-2-yloxy)quinolin-2-yl)-[1,2,4]triazolo[4,3-a]pyridin-6-yl)ethyl)pyrrolidin-3-amine dihydrochloride], the IC50 on recombinant rat PIM-3 was 3.5 nM; against PIM-1 it was 0.41 nM; in assay [1], more than 100 nM.

For the compound `CC(C)Oc1ccc2ccc(-c3nnc4ccc([C@@H](N5CC[C@H](N)C5)C(F)(F)F)cn34)nc2c1C1CC1` [Example 151, (S)-1-((R)-1-(3-(8-cyclopropyl-7-isopropoxyquinolin-2-yl)-[1,2,4]triazolo[4,3-a]pyridin-6-yl)-2,2,2-trifluoroethyl)pyrrolidin-3-amine dihydrochloride], the concentration for half-maximal inhibition (IC50) on recombinant rat PIM-3 was determined as 1 nM; on PIM-1 it was 0.49 nM; in assay [1] it was 85 nM.

On to `COCCOc1ccc2ccc(-c3nnc4ccc([C@@H](N5CC[C@H](N)C5)C(F)(F)F)cn34)nc2c1C1CC1` [Example 152, (S)-1-((R)-1-(3-(8-cyclopropyl-7-(2-methoxyethoxy)quinolin-2-yl)-[1,2,4]triazolo[4,3-a]pyridin-6-yl)-2,2,2-trifluoroethyl)pyrrolidin-3-amine dihydrochloride], for which the results for the IC50 (on recombinant rat PIM-3; at PIM-1; in assay [1]) were 0.3 nM, 0.25 nM and 42 nM, respectively.

Turning to `COCCc1cc2nc(-c3nnc4ccc([C@@H](N5CC[C@H](N)C5)C(F)(F)F)cn34)ccc2cc1F` [Example 153, (S)-1-((R)-2,2,2-trifluoro-1-(3-(6-fluoro-7-(2-methoxyethyl)quinolin-2-yl)-[1,2,4]triazolo[4,3-a]pyridin-6-yl)ethyl)pyrrolidin-3-amine dihydrochloride], the IC50 at recombinant rat PIM-3 was 1.6 nM; on PIM-1, 0.19 nM; in assay [1] it was more than 100 nM.

Turning to `N[C@H]1CCN([C@H](c2ccc3nnc(-c4ccc5cc(F)c(OC6CCOCC6)cc5n4)n3c2)C(F)(F)F)C1` [Example 156, (S)-1-((R)-2,2,2-trifluoro-1-(3-(6-fluoro-7-(tetrahydro-2H-pyran-4-yloxy)quinolin-2-yl)-[1,2,4]triazolo[4,3-a]pyridin-6-yl)ethyl)pyrrolidin-3-amine hydrochloride], the figures for the IC50 (at recombinant rat PIM-3; against PIM-1; in assay [1]) were 0.4 nM, 0.15 nM and 38 nM, respectively.

As for `N[C@H]1CCN([C@H](c2ccc3nnc(-c4ccc5cc(F)c(O)cc5n4)n3c2)C(F)(F)F)C1` [Example 157, 2-(6-((R)-1-((S)-3-aminopyrrolidin-1-yl)-2,2,2-trifluoroethyl)-[1,2,4]triazolo[4,3-a]pyridin-3-yl)-6-fluoroquinolin-7-ol hydrochloride], the half-maximal inhibitory concentration (IC50) on recombinant rat PIM-3 stood at 12 nM; on PIM-1, 3.44 nM; in assay [1], 239 nM.

As for `N[C@H]1CCN([C@H](c2ccc3nnc(-c4ccc5cc(F)cc(OCC6CC6)c5n4)n3c2)C(F)(F)F)C1` [Example 158, (S)-1-((R)-1-(3-(8-(cyclopropylmethoxy)-6-fluoroquinolin-2-yl)-[1,2,4]triazolo[4,3-a]pyridin-6-yl)-2,2,2-trifluoroethyl)pyrrolidin-3-amine hydrochloride], the values for the IC50 (on recombinant rat PIM-3; against PIM-1; in assay [1]) were 1.1 nM, 0.16 nM and 41 nM, respectively.

On to `COC[C@@H](C)Oc1cc(F)cc2ccc(-c3nnc4ccc([C@@H](N5CC[C@H](N)C5)C(F)(F)F)cn34)nc12` [Example 159, (S)-1-((R)-2,2,2-trifluoro-1-(3-(6-fluoro-8-((R)-1-methoxypropan-2-yloxy)quinolin-2-yl)-[1,2,4]triazolo[4,3-a]pyridin-6-yl)ethyl)pyrrolidin-3-amine dihydrochloride], for which the half-maximal inhibitory concentration (IC50) at recombinant rat PIM-3 was determined as 0.5 nM; on PIM-1, 0.14 nM; in assay [1] it was 48 nM.

`COC[C@@H](C)Oc1cc2nc(-c3nnc4ccc([C@@H](N5CC[C@H](N)C5)C(F)(F)F)cn34)ccc2cc1F` [Example 160, (S)-1-((R)-2,2,2-trifluoro-1-(3-(6-fluoro-7-((R)-1-methoxypropan-2-yloxy)quinolin-2-yl)-[1,2,4]triazolo[4,3-a]pyridin-6-yl)ethyl)pyrrolidin-3-amine dihydrochloride]: the IC50 was found to be 0.4 nM at recombinant rat PIM-3, 0.16 nM against PIM-1 and 46 nM in assay [1].

In the case of `N[C@H]1CCN([C@H](c2ccc3nnc(-c4ccc5cccc(C(F)(F)F)c5n4)n3c2)C(F)(F)F)C1` [Example 161, (S)-1-((R)-2,2,2-trifluoro-1-(3-(8-(trifluoromethyl)quinolin-2-yl)-[1,2,4]triazolo[4,3-a]pyridin-6-yl)ethyl)pyrrolidin-3-amine dihydrochloride], the figures for the half-maximal inhibitory concentration (IC50) (on recombinant rat PIM-3; against PIM-1; in assay [1]) were 1.9 nM, 0.23 nM and more than 100 nM, respectively.

`COc1cc2nc(-c3nnc4ccc([C@@H](N5CC(F)[C@H](N)C5)C(F)(F)F)cn34)ccc2cc1F` (stereo partly drawn) [Example 162, (3R)-4-fluoro-1-((R)-2,2,2-trifluoro-1-(3-(6-fluoro-7-methoxyquinolin-2-yl)-[1,2,4]triazolo[4,3-a]pyridin-6-yl)ethyl)pyrrolidin-3-amine dihydrochloride]: the half-maximal inhibitory concentration (IC50) is 35 nM on recombinant rat PIM-3, 1.24 nM against PIM-1 and more than 100 nM in assay [1].

Consider `N[C@H]1CCN([C@H](c2ccc3nnc(-c4ccc5cc(F)cc(O)c5n4)n3c2)C(F)(F)F)C1` [Example 163, 2-(6-((R)-1-((S)-3-aminopyrrolidin-1-yl)-2,2,2-trifluoroethyl)-[1,2,4]triazolo[4,3-a]pyridin-3-yl)-6-fluoroquinolin-8-ol hydrochloride], for which the IC50 was 10 nM at recombinant rat PIM-3, 0.3 nM against PIM-1 and more than 100 nM in assay [1].

For the compound `N[C@H]1CCN([C@H](c2ccc3nnc(-c4ccc5cc(F)c(C6(CO)CC6)cc5n4)n3c2)C(F)(F)F)C1` [Example 164, (1-(2-(6-((R)-1-((S)-3-aminopyrrolidin-1-yl)-2,2,2-trifluoroethyl)-[1,2,4]triazolo[4,3-a]pyridin-3-yl)-6-fluoroquinolin-7-yl)cyclopropyl)methanol dihydrochloride], the IC50 at recombinant rat PIM-3 is 7.3 nM; on PIM-1, 2.63 nM; in assay [1], more than 100 nM.

For `COCC1(c2cc3nc(-c4nnc5ccc([C@@H](N6CC[C@H](N)C6)C(F)(F)F)cn45)ccc3cc2F)CC1` [Example 165, (S)-1-((R)-2,2,2-trifluoro-1-(3-(6-fluoro-7-(1-(methoxymethyl)cyclopropyl)quinolin-2-yl)-[1,2,4]triazolo[4,3-a]pyridin-6-yl)ethyl)pyrrolidin-3-amine dihydrochloride], the results for the half-maximal inhibitory concentration (IC50) (on recombinant rat PIM-3; against PIM-1; in assay [1]) were 6.6 nM, 3.83 nM and more than 100 nM, respectively.

As to `COCCc1ccc2ccc(-c3nnc4ccc([C@@H](N5CC[C@H](N)C5)C(F)(F)F)cn34)nc2c1F` [Example 166, (S)-1-((R)-2,2,2-trifluoro-1-(3-(8-fluoro-7-(2-methoxyethyl)quinolin-2-yl)-[1,2,4]triazolo[4,3-a]pyridin-6-yl)ethyl)pyrrolidin-3-amine dihydrochloride], the IC50 at recombinant rat PIM-3 was 8.9 nM; against PIM-1, 1.33 nM; in assay [1], more than 100 nM.

For `COc1ccc2ccc(-c3nnc4ccc([C@@H](N5CC[C@H](N)C5)C(F)(F)F)cn34)nc2c1F` [Example 167, (S)-1-((R)-2,2,2-trifluoro-1-(3-(8-fluoro-7-methoxyquinolin-2-yl)-[1,2,4]triazolo[4,3-a]pyridin-6-yl)ethyl)pyrrolidin-3-amine dihydrochloride], the IC50 at recombinant rat PIM-3 is 12 nM; against PIM-1 it was 2.04 nM; in assay [1], more than 100 nM.

On to `N[C@H]1CCN([C@H](c2ccc3nnc(-c4ccc5cccc(F)c5n4)n3c2)C(F)(F)F)C1` [Example 168, (S)-1-((R)-2,2,2-trifluoro-1-(3-(8-fluoroquinolin-2-yl)-[1,2,4]triazolo[4,3-a]pyridin-6-yl)ethyl)pyrrolidin-3-amine dihydrochloride], for which the IC50 is 15 nM on recombinant rat PIM-3, 1.75 nM against PIM-1 and more than 100 nM in assay [1].
